The source of these data is US7195901B1 (priority 2004, dated 2007).

The subject of this test is yeast endogenous DGAT. It counts as biochemical, S. cerevisiae. The following applies: 1 mM diricinolein; yeast grown under repression (2% glucose) condition.

In the case of 1,2-diricinolein, the “absolute incorporation of 14C-oleate into RRO” value is listed as “less than 20 pmol/mg/min”.
